These results are taken from patent US20170202792A1, “METHOD FOR TREATING TAU-ASSOCIATED DISEASES” (NATIONAL TAIWAN NORMAL UNIVERSITY, priority 2016, published 2017).

For one test, the target named is T1, Recombinant human GSK-3β (Homo sapiens, UniProt P49841).
T1 construct: purchased Promega V1991
Nature of the test: GSK-3β kinase activity, ADP-Glo Kinase Assay. Type of test: biochemical. As to the method:
The ability of the compound (I) and SB216763 (compound (II)) for inhibiting GSK-3β activity is evaluated in the following paragraphs, wherein compound (II) is a known GSK-3β inhibitor in the art (Product No. 53442, Sigma). GSK-3β kinase activity was measured in the presence of the tested compounds (I) and (II) using ADP-Glo™ Kinase Assay system (Promega). Recombinant human GSK-3β (Product code V1991, Promega) was used as the enzyme source, and the GSK-3β substrate is derived from human muscle glycogen synthase 1 peptide ([…](pS)EDEEE) which corresponds to a region of glycogen synthase that is phosphorylated by GSK-3β. Reactions were performed at 30° C. for 30 minutes in 25 μL mixture that contained 25 μM ATP, 0.2 mg/mL GSK-3β substrate, 1 ng of GSK-3β, and serial dilutions of compound (I) or compound (II). Kinase activity data were measured as relative light units (RLU) directly correlated with the amount of ADP produced and FIG. 1 showing the analysis results.
The IC50 values of compound (I) and compound (II) were determined by using SigmaPLOT software.

Test [1] relates to SH-SY5Y tauRD-DsRed cells. Nature of the test: Neurite outgrowth in SH-SY5Y tauRD-DsRed cells (TUBB3 staining). The following applies: 10 μM, pre-treated 8 hours, doxycycline 7 days; untreated = 100%. The test is classed as cell-based, human. As to the method: We used SH-SY5Y human cells expressing a DsRed-tagged proaggregation mutant (ΔK280) of the C-terminal repeat domain of tau (tauRD-Gln^244-Glu^372 of the longest tau^441 isoform). The recombinant tauRD-DsRed construct was under the control of a tetracycline-regulated, hybrid human cytomegalovirus (CMV)/TetO2 promoter that can be induced by adding doxycycline. The cell lines were grown in medium containing blasticidin (5 μg/mL) and hygromycin (100 μg/mL).
SH-SY5Y tauRD-DsRed cells were seeded in 6-well plates (1×10^5/well) in a medium containing all-trans retinoic acid (10 μM, Sigma). After 48 hours of incubation, cells were pre-treated with 10 μM Congo red and 10 μM compound (I) for 8 hours; after which, tauRD-DsRed expression was induced with 1μg/mL doxycycline for 7 days. The cells were then fixed in 4% paraformaldehyde, permeabilized with 0.1% Triton X-100, blocked in 3% BSA, and then stained with the primary antibody anti-TUBB3 (against neuronal Class III β-tubulin) (1:1000; Covance) and with a secondary anti-rabbit Alexa Fluor® 555 antibody (1:500; Molecular Probes). Nuclei were counterstained with 4′,6-diamidino-2-phenylindole (DAPI). The total outgrowth in the untreated, Congo red-treated, and compound (I)-treated cells was assessed using MetaXpress image acquisition and analysis software.

In test [2] the test system is p-tau (Ser202, Thr231 and Ser396). Nature of the test: Western blot of phosphorylated tau in tauRD-DsRed SH-SY5Y cells. Type of test: cell-based, human. The following applies: untreated = 100%. Here is the method: Western blotting analysis was applied for examining the expressions of HSPB1 and GRP78, the method was as follows: total proteins were extracted using RIPA buffer, which comprised 50 mM Tris-HCl, 150 mM NaCl, 1 mM EDTA, 1 mM EGTA, 0.1% SDS, 0.5% sodium deoxycholate, 1% Triton X-100, and a protease inhibitor cocktail (Calbiochem). […] of total proteins were separated on 10% SDS-PAGE gels and blotted onto nitrocellulose membrane which were stained (4° C., overnight) with antibodies against DsRed (1:500; Santa Cruz), HSPB1 (1:500; Santa Cruz), and GRP78 (1:200; Santa Cruz). Next, immunoreactive bands were detected using horseradish peroxidase-conjugated goat anti-mouse, goat anti-rabbit, or donkey anti-goat IgG antibodies (1:5000; GeneTex) and chemiluminescent substrate (Millipore).
The methods of cell culture and western blot analysis are similar to that described above, except that the antibodies against GSK-3β (total and p-Ser9) (1:1000; Cell Signaling), total tau (1:500; Dako), p-tau (Ser202) (1:500; AnaSpec), p-tau (Thr231 and Ser396) (1:1000; Invitrogen), [3-actin (1:5000; Millipore), or GAPDH (1:2000; MDBio) were used herein for evaluation of the expression levels thereof in the cells.

Another test relates to GSK-3β. Nature of the test: Western blot of mouse hippocampal tissue, GSK-3β. The test is classed as in vivo. The following applies: hyperglycemic 3×Tg-AD mice; 0.25 mg/kg i.p. daily. Here is the method:
Hyperglycemia was induced by streptozotocin (STZ) to accelerated Alzheimer's disease progression of 6-month-old male transgenic 3×Tg−AD mice. Half of the 3×Tg−AD mice (n=30) received STZ (100 mg/kg) intraperitoneal injection at days 1, 2, 8, and 9 respectively as the high blood glucose group (HBG); another half of the 3×Tg-AD mice (n=30) received sodium citrate (0.1 M) at the same time points as the normal blood glucose group (NBG). […] Both mouse body weight (BW) and blood glucose (BG) were monitored every week.
Mice were sacrificed after MWM and hippocampi were isolated for analyzing several protein expression levels by means of western blot. The protein of the hippocampi was quantified by BCA assay (Pierce), wherein 25 μg of protein was separated by SDS-PAGE and then transferred to PVDF film. Next, protein was blocked for reducing non-specific signals, and reacted with primary antibodies (GSK-3β, pS9-GSK-3β (non-activated), pT216-GSK-3β(activated), pS202Tau, pS396Tau, pT231Tau, HT7 (total Tau)), and secondary antibodies (anti-rabbit, anti-mouse IgG HRP-linked antibody; 1:10,000; Amersham Pharmacia Biotech). β-actin was used as the loading control, ECL kit was used to detect the antigen-antibody complex, and LAS-4000 (Fujifilm) was used for imaging and quantification.

T1 sequence (P49841 whole entry): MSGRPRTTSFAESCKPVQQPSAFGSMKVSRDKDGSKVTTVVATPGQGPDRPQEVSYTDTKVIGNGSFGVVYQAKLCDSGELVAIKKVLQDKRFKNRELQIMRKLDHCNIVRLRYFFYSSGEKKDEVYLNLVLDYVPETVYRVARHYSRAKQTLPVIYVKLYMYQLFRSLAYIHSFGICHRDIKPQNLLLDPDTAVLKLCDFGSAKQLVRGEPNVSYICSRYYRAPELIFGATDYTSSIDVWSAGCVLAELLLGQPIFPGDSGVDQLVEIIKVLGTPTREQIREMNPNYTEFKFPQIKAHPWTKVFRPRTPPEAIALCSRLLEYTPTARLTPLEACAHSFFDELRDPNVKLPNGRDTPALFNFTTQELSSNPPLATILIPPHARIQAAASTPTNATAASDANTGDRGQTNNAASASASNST

As for `CCCCC/C=C\C/C=C\C/C=C\C/C=C\CCCC(=O)Nc1ccc(O)cc1` [compound (I), (5Z, 8Z, 11Z,14Z)-N-(4-Hydroxyphenyl)icosa-5 ,8 , 11,14-tetraen amide], the 50% inhibitory concentration (IC50) at Recombinant human GSK-3β (25 μM ATP, 1 ng GSK-3β, 30° C., 30 minutes) is 5.35 µM. Moreover, the remaining activity at 0.018 µM on Recombinant human GSK-3β (concentration of compound (I) 0.018 μM, read-out: residual activity of GSK-3β) turned out to be 69.6 ± 2%. Moreover, the “neurite growth relative to untreated cells” value in test [1] is 140%. Besides, in test [2], the “phosphorylated tau Ser202 level relative to untreated cells” value is reported as 32%-42%, the “phosphorylated tau Ser396 level relative to untreated cells” value is 54%-78% and the “phosphorylated tau Thr231 level relative to untreated cells” value was 37%-48%. For the same compound, the “GSK-3β inhibition in hippocampus (pT216-GSK-3β/GSK-3β, pS9-GSK-3β/GSK-3β)” value with GSK-3β is reported as “exerts inhibition for GSK-3β”.
